According to US20120088667A1, “SAFENING AGENT” (priority 2009, published 2012):
Like-named read-outs stand apart in the source and are kept apart here.

Tests used:
[1] = test system: NAVY BEAN cv Mogex; assay: Root nodulation and safening, navy bean, compost of low pH (Example 7.3); conditions: compost of low pH (5.0-5.5); for Nodules Per Plant (V1): V1, +28 days after spraying, no inoculum; for Nodulation Score (0-9) (V1) / Phyto-Toxicity Score (0-9) (V1) / Vigour Score (0-9) (V1): V1, score 0-9
Text: (§1) The safener/safening system and the fertiliser were applied to the crops either simultaneously or sequentially.
(§2) Co=100% Cobalt Sulphate (20 g per litre and per hectare). FF1=20 g per litre Cobalt Sulphate (as per Co above) plus “Miracle-Gro” at xl recommended rate (applied at 15 g per 2.5 sq metres). Miracle-Gro contains: 24% N, 4% P, 13% K, plus 0.02% B, 0.03% Cu, 0.19% Fe, 0.05% Mn, 0.001% Mo and 0.03% Zn. FF2=20 g per litre Cobalt Sulphate plus Miracle-Gro at ×2 recommended rate. SAF: at least one from class (f) each at <3 g/l, plus at least one from class (c).
NAVY BEAN cv Mogex. Scored/Counted+28 Days after Spraying. Sown in Compost of low pH (5.0-5.5) on 29 Apr. 2008. Spray Date (VC)=27 May, V1 Date=16 June. Scored/Measured on 11 July. Each treatment represents the mean value of 12 plants, within four replicates. No inoculum applied.

[2] = test system: Soybean; assay: Root nodulation and safening, soybean, compost of low pH (Example 7.1); conditions: Soybean, compost of low pH (5.0-5.5); for Nodules Per Plant (V1): V1, +28 days after spraying, mean of 12 plants; for Nodulation Score (0-9) (V1) / Phyto-Toxicity Score (0-9) (V1) / Vigour Score (0-9) (V1): V1, score 0-9; for Nodules Per Plant (VC): +28 days after spraying
Text: as §1, §2
Scored/Counted+28 Days After Spraying. Sown in Compost of low pH (5.0-5.5) on 1 May 2008. Spray Date (VC)=4 June, V1 Date=20 June. Scored/Measured on 17 July. […] Seed density approx 110 kg/ha. Soybean treated with standard inoculant at sowing.

[3] = test system: Winter Barley cv Saffron; conditions: for Vigour (0-9) (9 = Most Vigour) + 14 days: score 0-9, 9 = Most Vigour; for Vigour (0-9) + 28 Days: score 0-9, +28 days; for Phytotoxicity (0-9) (0 = Dead) + 14 Days / Phytotoxicity (0-9) (0 = Dead) + 28 Days: score 0-9, 0 = Dead
Text: (§3) The safening system and the fungicide were applied to the crops either simultaneously or sequentially, either as foliar applications or as a seed treatment.
(§4) Winter Barley: cv Saffron, sown 27 May 2008, at four/five seeds per 9 cm pot, sown in standard multi-purpose compost of pH 6.5. Date of spraying: 23 July; Dates of measurement/scoring: 30 July, 14 August, 22 August. Sprayed: mid-tillering phase (GS23). Winter Wheat: cv Limerick, sown 4 Jun. 2008, at four/five seeds per 9 cm pot, sown in standard multi-purpose compost of pH 6.5. Date of spraying: 23 July; Dates of measurement/scoring: 30 July, 14 August, 23 August. Sprayed: mid-tillering phase (GS23). Maize: cv Sundance, sown 25 May 2008, at 10 seeds per 25 cm pot, in John Innes No 1 compost. Date of measurement/assessment: 15 June. Seed treatment trial. Randomised block, mean of five replicates.
(§5) SAF: at least one from class (f) each at <3 g/l, plus at least one from class (c).

[4] = test system: Winter Wheat cv Limerick
Text: as §3, §4, §5

[5] = test system: Maize cv Sundance (i.e. not Roundup Ready); conditions: no glyphosate; for Vigour (0-9) + 14 Days / Vigour (0-9) + 28 Days / Vigour (0-9) + 41 Days: scale 0-9, 0=least vigour, 9=most vigour
[6] = Table 2.1, fungicide Prochloraz
[7] = Table 2.2, fungicide Flutriafol
[8] = Table 2.3, fungicides Fenpropidin and Flutriafol
[9] = Table 2.4, winter wheat, fungicide Prochloraz, score 0-9, 9 = Most Vigour
[10] = Table 2.5, winter wheat, fungicide Flutriafol, score 0-9, 9 = Most Vigour
[11] = score 0-9, 9 = most vigour, foliar, fungicides Fenpropidin and Flutriafol, Table 2.6
[12] = scale 0-9, 0=dead, 9=least phytotoxicity
[13] = Table 2.4, winter wheat, fungicide Prochloraz, score 0-9, 0 = Dead
[14] = Table 2.5, winter wheat, fungicide Flutriafol, score 0-9, 0 = Dead
[15] = score 0-9, 0 = dead, foliar, fungicides Fenpropidin and Flutriafol, Table 2.6

Q: How did the “Nodules Per Plant (V1)” value [1] turn out when `CC(=O)Nc1ccc(O)cc1` [AC, N-(4-hydroxypheyl)acetamide, reference compound] was run?
A: 19.3

Q: What about the “Nodulation Score (0-9) (V1)” value [1] of the same compound?
A: 3.1

Q: What about the “Phyto-Toxicity Score (0-9) (V1)” value [1] of the same compound?
A: 5.6

Q: And the “Vigour Score (0-9) (V1)” value [1]?
A: 6.0

Q: And the “Nodules Per Plant (VC)” value [1]?
A: 22.1

Q: What about the “Nod Score (0-9) (VC)” value [1] of the same compound?
A: 3.5

Q: What about the “Nodules Per Plant (V1)” value [2] of the same compound?
A: 26.1

Q: And the “Nodulation Score (0-9) (V1)” value [2]?
A: 5.0

Q: What about the “Phyto-Toxicity Score (0-9) (V1)” value [2] of the same compound?
A: 8.0

Q: And the “Vigour Score (0-9) (V1)” value [2]?
A: 6.0

Q: And the “Nodules Per Plant (VC)” value [2]?
A: 28.1

Q: What about the “Nod Score (0-9) (VC)” value [2] of the same compound?
A: 5.3

Q: And the “Vigour (0-9) (9 = Most Vigour) + 14 days” value [3, 6]?
A: 7.0

Q: What about the “Vigour (0-9) + 28 Days” value [3, 6] of the same compound?
A: 8.0

Q: And the “Vigour (0-9) (9 = Most Vigour) + 14 days” value [3, 7]?
A: 7.0

Q: What about the “Vigour (0-9) + 28 Days” value [3, 7] of the same compound?
A: 8.0

Q: What about the “Vigour (0-9) (9 = Most Vigour) + 14 days” value [3, 8] of the same compound?
A: 7.0

Q: What about the “Vigour (0-9) + 28 Days” value [3, 8] of the same compound?
A: 8.0

Q: And the “Vigour (0-9) (9 = Most Vigour) + 14 days” value [4, 9]?
A: 7.0

Q: What about the “Vigour (0-9) (9 = Most Vigour) + 14 days” value [4, 10] of the same compound?
A: 7.0

Q: And the “Vigour (0-9) (9 = Most Vigour) + 14 days” value [4, 11]?
A: 7.0

Q: What about the “Phytotoxicity (0-9) (0 = Dead) + 41 days” value [5, 12] of the same compound?
A: 8.0

Q: And the “Vigour (0-9) + 14 Days” value [5]?
A: 8.0

Q: And the “Vigour (0-9) + 28 Days” value ([5]; 28 days)?
A: 8.0

Q: What about the “Vigour (0-9) + 41 Days” value [5] of the same compound?
A: 8.0

Q: What does the source list for `Nc1ccccc1C(=O)O` [AN, anthranilic acid]?
A: Nodules Per Plant (V1) [1]: 20.9; Nodulation Score (0-9) (V1) [1]: 3.3; Phyto-Toxicity Score (0-9) (V1) [1]: 6.0; Vigour Score (0-9) (V1) [1]: 6.0; Nodules Per Plant (VC) [1]: 23.4; Nod Score (0-9) (VC) [1]: 3.8; Nodules Per Plant (V1) [2]: 28.2; Nodulation Score (0-9) (V1) [2]: 5.3; Phyto-Toxicity Score (0-9) (V1) [2]: 8.0; Vigour Score (0-9) (V1) [2]: 6.2; Nodules Per Plant (VC) [2]: 33.2; Nod Score (0-9) (VC) [2]: 5.8; Phytotoxicity (0-9) (0 = Dead) + 14 Days [3, 6]: 7.5; Phytotoxicity (0-9) (0 = Dead) + 28 Days [3, 6]: 8.0; Vigour (0-9) (9 = Most Vigour) + 14 days [3, 6]: 7.0; Vigour (0-9) + 28 Days [3, 6]: 8.0; Phytotoxicity (0-9) (0 = Dead) + 14 Days [3, 7]: 7.5; Phytotoxicity (0-9) (0 = Dead) + 28 Days [3, 7]: 8.0; Vigour (0-9) (9 = Most Vigour) + 14 days [3, 7]: 7.0; Vigour (0-9) + 28 Days [3, 7]: 8.0; Phytotoxicity (0-9) (0 = Dead) + 14 Days [3, 8]: 7.5; Phytotoxicity (0-9) (0 = Dead) + 28 Days [3, 8]: 8.0; Vigour (0-9) (9 = Most Vigour) + 14 days [3, 8]: 7.0; Vigour (0-9) + 28 Days [3, 8]: 8.0; Phytotoxicity (0-9) (0 = Dead) + 14 Days [4, 13]: 7.5; Phytotoxicity (0-9) (0 = Dead) + 28 Days [4, 13]: 8.0; Vigour (0-9) (9 = Most Vigour) + 14 days [4, 9]: 7.0; Vigour (0-9) + 28 Days ([4]; Table 2.4, winter wheat, fungicide Prochloraz, score 0-9): 8.0; Phytotoxicity (0-9) (0 = Dead) + 14 Days [4, 14]: 7.5; Phytotoxicity (0-9) (0 = Dead) + 28 Days [4, 14]: 8.0; Vigour (0-9) (9 = Most Vigour) + 14 days [4, 10]: 7.0; Vigour (0-9) + 28 Days ([4]; Table 2.5, winter wheat, fungicide Flutriafol, score 0-9): 8.0; Phytotoxicity (0-9) (0 = Dead) + 14 Days [4, 15]: 7.5; Phytotoxicity (0-9) (0 = Dead) + 28 Days [4, 15]: 8.0; Vigour (0-9) (9 = Most Vigour) + 14 days [4, 11]: 7.0; Vigour (0-9) + 28 Days [4, 11]: 8.0; Phytotoxicity (0-9) (0 = Dead) + 14 Days ([5]; scale 0-9, 0=dead, 9=least phytotoxicity, 14 days after spraying): 8.0; Phytotoxicity (0-9) (0 = Dead) + 28 Days ([5]; scale 0-9, 0=dead, 9=least phytotoxicity, 28 days): 8.0; Phytotoxicity (0-9) (0 = Dead) + 41 days [5, 12]: 8.0; Vigour (0-9) + 14 Days [5]: 8.0; Vigour (0-9) + 28 Days ([5]; 28 days): 8.0; Vigour (0-9) + 41 Days [5]: 8.0
